Measurements reported in patent US20070129439A1, “COMPOSITIONS CONTAINING SUBSTITUTED QUINOLINES AND SUBSTITUTED DIPHENYL SULFONES AND METHODS OF USE” (priority 2003, published 2007).

Test system: neurons
Test: % neuron loss for test agents in a rat model with Alzheimer's disease (FIG. 1)
Format: in vivo
Conditions: rat model with AD
Source text: FIG. 1 is a plot of % neuron loss for several test agents in a rat model with Alzheimer's disease (AD).

Nc1ccc(S(=O)(=O)c2ccc(N)cc2)cc1 [dapsone, 4,4′-diaminodiphenylsulfone]
% neuron loss (killing effect) (dapsone alone at 2 mg/kg): suppression of the in vitro killing effect

CCN(CCO)CCCC(C)Nc1ccnc2cc(Cl)ccc12 (centres unmarked) [hydroxychloroquine]
% neuron loss (killing effect) (hydroxychloroquine alone at 6.5 mg/kg): suppression of the in vitro killing effect
